The term Ki denotes a dissociation constant, usually derived from enzyme kinetics or from competition with a known ligand.

The text below walks through data of patent publication US20240425482A1, “PYRROLIDINE DERIVATIVES AS DDRS INHIBITORS” (CHIESI FARMACEUTICI S.P.A., priority 2021, published 2024).

Experiment [1] addresses DDR1 (Homo sapiens (Human), UniProt Q08345). The experiment can be described thus: DDR1 LanthaScreen Europium Kinase Binding assay. As to conditions: binding; 5 nM DDR1, 20 nM Kinase Tracer 178, 1 hour at rt; Ki from IC50 by Cheng-Prusoff; read-out: Ki DDR1. How it is done:
(§1) DDR1 and DDR2 binding assays were performed using Life Technologies LanthaScreen™ Europium Kinase Binding assay. The compounds were incubated with 5 nM DDR1 (Carna Biosciences) or 5 nM DDR2 (Life Technologies) for 1 hour at rt in white 384-well OptiPlate (PerkinElmer), containing 20 nM or 10 nM Kinase Tracer 178 respectively and 2 nM Europium labelled anti-GST antibody (Life Technologies) in assay buffer (50 mM HEPES pH 7.5, 10 mM MgCI2, 1 mM EGTA and 0.01% BRIJ35). The ratio of fluorescence emission 665 nm/615 nm after excitation at 340 nm was obtained using the Tecan Spark 20M plate reader. IC50 values were determined in GraphPad Prism 7.0 software, using 4 parameter model: log(inhibitor) vs. response. IC50 values were converted in Ki using the Cheng-Prusoff equation (Ki=IC50/(1+[Tracer]/Kd).
(§2) Compounds C1 and C2 were tested in the same binding assay described above.

The target of experiment [2] is DDR2 (Homo sapiens (Human), UniProt Q16832). Briefly: DDR2 LanthaScreen Europium Kinase Binding assay. The conditions noted are these: binding; 5 nM DDR2, 10 nM Kinase Tracer 178, 1 hour at rt; Ki from IC50 by Cheng-Prusoff; read-out: Ki DDR2. As to the method:
as §1, §2

Some results are limits rather than exact numbers.

Chain of DDR1 (Q08345 19-913): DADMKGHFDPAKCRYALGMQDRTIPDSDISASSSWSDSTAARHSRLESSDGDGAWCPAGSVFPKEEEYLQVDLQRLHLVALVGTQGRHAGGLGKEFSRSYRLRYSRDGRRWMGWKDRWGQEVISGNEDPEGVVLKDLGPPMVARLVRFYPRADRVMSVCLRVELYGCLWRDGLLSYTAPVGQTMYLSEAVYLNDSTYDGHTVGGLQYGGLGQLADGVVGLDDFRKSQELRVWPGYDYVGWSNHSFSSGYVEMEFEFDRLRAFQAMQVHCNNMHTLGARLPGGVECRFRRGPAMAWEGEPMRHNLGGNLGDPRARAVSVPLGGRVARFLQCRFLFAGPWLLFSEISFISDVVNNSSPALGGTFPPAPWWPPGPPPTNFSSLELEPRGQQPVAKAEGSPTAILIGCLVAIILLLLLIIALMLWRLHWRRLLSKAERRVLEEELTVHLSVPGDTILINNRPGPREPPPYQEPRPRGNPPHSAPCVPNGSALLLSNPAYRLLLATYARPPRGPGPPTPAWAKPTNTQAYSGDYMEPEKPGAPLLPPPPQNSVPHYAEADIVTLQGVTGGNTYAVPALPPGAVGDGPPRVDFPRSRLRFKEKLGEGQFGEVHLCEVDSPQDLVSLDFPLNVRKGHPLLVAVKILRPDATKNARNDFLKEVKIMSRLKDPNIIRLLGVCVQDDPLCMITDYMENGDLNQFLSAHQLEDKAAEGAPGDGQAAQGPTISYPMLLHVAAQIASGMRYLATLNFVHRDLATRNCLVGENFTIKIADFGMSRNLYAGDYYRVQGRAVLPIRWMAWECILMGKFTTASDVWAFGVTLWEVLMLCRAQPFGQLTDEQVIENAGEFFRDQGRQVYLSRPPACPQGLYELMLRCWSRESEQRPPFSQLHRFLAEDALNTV
Chain of DDR2 (Q16832 22-855): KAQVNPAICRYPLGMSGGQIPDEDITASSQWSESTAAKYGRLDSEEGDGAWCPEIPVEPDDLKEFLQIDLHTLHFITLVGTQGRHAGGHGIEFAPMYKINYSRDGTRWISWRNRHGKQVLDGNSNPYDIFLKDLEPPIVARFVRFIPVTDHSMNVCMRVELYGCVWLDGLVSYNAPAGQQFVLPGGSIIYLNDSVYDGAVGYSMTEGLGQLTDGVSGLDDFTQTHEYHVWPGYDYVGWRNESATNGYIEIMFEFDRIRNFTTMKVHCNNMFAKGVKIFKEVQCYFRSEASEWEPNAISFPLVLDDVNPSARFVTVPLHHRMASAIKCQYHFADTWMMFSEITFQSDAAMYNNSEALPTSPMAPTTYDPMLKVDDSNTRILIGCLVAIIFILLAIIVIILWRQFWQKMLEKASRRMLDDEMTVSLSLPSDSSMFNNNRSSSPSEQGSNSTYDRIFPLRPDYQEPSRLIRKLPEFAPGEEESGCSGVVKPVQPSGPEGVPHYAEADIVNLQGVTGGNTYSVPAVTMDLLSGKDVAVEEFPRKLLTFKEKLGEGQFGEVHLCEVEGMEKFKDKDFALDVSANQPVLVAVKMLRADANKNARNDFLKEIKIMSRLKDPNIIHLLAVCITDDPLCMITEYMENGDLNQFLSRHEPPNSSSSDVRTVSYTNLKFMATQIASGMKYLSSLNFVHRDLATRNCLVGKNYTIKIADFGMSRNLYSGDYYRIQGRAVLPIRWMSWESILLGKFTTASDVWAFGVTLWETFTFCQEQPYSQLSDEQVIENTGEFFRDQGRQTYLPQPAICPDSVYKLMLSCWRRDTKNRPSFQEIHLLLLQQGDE

With `Cc1ccc(C(=O)Nc2cccc(C(F)(F)F)c2)cc1[C@@H]1CCN(c2cncc(Nc3cnn(C)c3)c2)C1` [Example 45, (S)-4-methyl-3-(1-(5-((1-methyl-1H-pyrazol-4-yl)amino)pyridin-3-yl)pyrrolidin-3-yl)-N-(3-(trifluoromethyl)phenyl)benzamide], the figures for the Ki in experiment [1] and in experiment [2] were under 10 nM and 10 to 25 nM, respectively.

For the molecule `COCCn1cc(Nc2cncc(N3CC[C@@H](c4cc(C(=O)Nc5cccc(C(F)(F)F)c5)ccc4C)C3)c2)cn1` [Example 46, (S)-3-(1-(5-((1-(2-methoxyethyl)-1H-pyrazol-4-yl)amino)pyridin-3-yl)pyrrolidin-3-yl)-4-methyl-N-(3-(trifluoromethyl)phenyl)benzamide], the inhibitory constant (Ki) in experiment [1] was under 10 nM; in experiment [2], 10 to 25 nM.

For the molecule `COCCn1cc(Nc2ccc(N3CC[C@@H](c4cc(C(=O)Nc5cccc(C(F)(F)F)c5)ccc4C)C3)cn2)cn1` [Example 47, (S)-3-(1-(6-((1-(2-methoxyethyl)-1H-pyrazol-4-yl)amino)pyridin-3-yl)pyrrolidin-3-yl)-4-methyl-N-(3-(trifluoromethyl)phenyl)benzamide], the Ki was 10 to 25 nM in experiment [1] and 25 to 60 nM in experiment [2].

In the case of `Cc1ccc(C(=O)Nc2cccc(C(F)(F)F)c2)cc1[C@@H]1CCN(c2cnc(Nc3cnn(C)c3)nc2)C1` [Example 48, (S)-4-methyl-3-(1-(2-((1-methyl-1H-pyrazol-4-yl)amino)pyrimidin-5-yl)pyrrolidin-3-yl)-N-(3-(trifluoromethyl)phenyl)benzamide], the inhibition constant (Ki) in experiment [1] and in experiment [2] was under 10 nM throughout.

`CNc1ncc(N2CC[C@@H](c3cc(C(=O)Nc4cccc(C(F)(F)F)c4)ccc3C)C2)cn1` [Example 49, (S)-4-methyl-3-(1-(2-(methylamino)pyrimidin-5-yl)pyrrolidin-3-yl)-N-(3-(trifluoromethyl)phenyl)benzamide]: the Ki in experiment [1] was under 10 nM; in experiment [2], 10 to 25 nM.

As to `Cc1ccc(C(=O)Nc2cccc(C(F)(F)F)c2)cc1[C@@H]1CCN(c2ccc(N)nc2)C1` [Example 50, (S)-3-(1-(6-aminopyridin-3-yl)pyrrolidin-3-yl)-4-methyl-N-(3-(trifluoromethyl)phenyl)benzamide], the figures for the Ki in experiment [1] and in experiment [2] were under 10 nM and 25 to 60 nM, respectively.

Take `CC(=O)Nc1ncc(N2CC[C@@H](c3cc(C(=O)Nc4cccc(C(F)(F)F)c4)ccc3C)C2)cn1` [Example 51, (S)-3-(1-(2-acetamidopyrimidin-5-yl)pyrrolidin-3-yl)-4-methyl-N-(3-(trifluoromethyl)phenyl)benzamide]: the Ki in experiment [1] is under 10 nM; in experiment [2] it was 10 to 25 nM.

As to `Cc1ccc(C(=O)Nc2cccc(C(F)(F)F)c2)cc1[C@@H]1CCN(c2cncc(-c3cnn(C)c3)c2)C1` [Example 52, (S)-4-methyl-3-(1-(5-(1-methyl-1H-pyrazol-4-yl)pyridin-3-yl)pyrrolidin-3-yl)-N-(3-(trifluoromethyl)phenyl)benzamide], the Ki in experiment [1] and in experiment [2] was under 10 nM in each case.

Consider `Cc1ccc(C(=O)Nc2ccc(CN3CCOCC3)c(C(F)(F)F)c2)cc1[C@@H]1CCN(c2cncc(C(N)=O)c2)C1` [Example 56, (S)-5-(3-(2-methyl-5-((4-(morpholinomethyl)-3-(trifluoromethyl)phenyl)carbamoyl)phenyl)pyrrolidin-1-yl)nicotinamide], for which the inhibition constant Ki was under 10 nM in experiment [1] and 10 to 25 nM in experiment [2].

As for `Cc1ccc(C(=O)Nc2cc(CN3CCCC3)cc(C(F)(F)F)c2)cc1[C@@H]1CCN(c2cncc(C(N)=O)c2)C1` [Example 57, (S)-5-(3-(2-methyl-5-((3-(pyrrolidin-1-ylmethyl)-5-(trifluoromethyl)phenyl)carbamoyl)phenyl)pyrrolidin-1-yl)nicotinamide], the Ki in experiment [1] and in experiment [2] was under 10 nM each time.

As for `Cc1ccc(C(=O)Nc2ccc(CN(C)C)c(C(F)(F)F)c2)cc1[C@@H]1CCN(c2cncc(C(N)=O)c2)C1` [Example 58, (S)-5-(3-(5-((4-((dimethylamino)methyl)-3-(trifluoromethyl)phenyl)carbamoyl)-2-methylphenyl)pyrrolidin-1-yl)nicotinamide], the inhibitory constant (Ki) in experiment [1] was under 10 nM; in experiment [2], 10 to 25 nM.
